The subject of one data set is C. albicans (CA-6). Nature of the data set: Therapeutic activity against systemic candidiasis in mice. Format: in vivo, Balb/c mice. Particulars: 200 µg i.p. 4 h before, 100 µg 1 and 2 days after infection. As for the experimental part: Female, 8–10 weeks old, inbred Balb/c mice were obtained from Harlan Nossan Laboratories (Milan, Italy) and housed at the Animal Facilities of the University of Perugia, Perugia, Italy. Procedures involving animals and their care were conducted in conformity with national and international laws and policies.
Groups of 7 Balb/c mice were infected intravenously with 5×10^5 or 7.5×10^5 CA-6 cells suspended in 0.5 ml saline for evaluation of fungal clearance or mice survival, respectively.
Infected animals were given 200 µg of mouse VLCDR3 or VHCDR3 peptides intraperitoneally 4 h before infection, and 100 µg 1 and 2 days after infection for a total of 400 µg/mouse. Untreated animals served as a NC. Quantification of fungal growth at 5, 7, and 12 days after infection was assessed by plating serial dilutions of kidney homogenates onto Sabouraud agar. Animal survival was monitored for 30 days after infection.

Another data set has as its system TNF-α gene. Nature of the data set: TNF-α gene expression in PM (quantitative RT-PCR). Format: cell-based, mouse (Balb/c). The conditions noted are these: PM 1×10^6/ml, 10 µg/ml, qPCR normalized against GADPH, n = 5. As for the experimental part: After incubation, cells were lysed using Trizol reagent (Invitrogen, Carlsbad, CA), and total RNA was extracted. The reverse transcriptase (RT) reaction was performed using Moloney murine leukaemia virus reverse transcriptase (M-MLV RT), as described in the manufacturer's instructions (Invitrogen).
TNF-α, TLR-4, and GADPH clones for use as standards were prepared by PCR from cDNA derived from PM and cloned into p-Drive vector (Qiagen, S.p.A., Milano, Italy). These were verified by sequence analysis. Plasmid DNA was diluted 10-fold and the starting concentration for the dilution series was 10^8 gene copies/µl.
For each target gene, primers were selected using the Beacon Designer software (Bio-Rad, Hercules, CA). Real-time RT-PCR (quantitative RT-PCR) was performed in 96-well PCR plates using the SYBR green (all from BioRad). For real-time PCR reaction 100 ng/µl of reverse-transcribed RNA was used and cDNA was normalized according to GADPH as an internal NC gene. Amplification conditions were the same for TNF-α, TLR-4 and GADPH mRNAs assayed: 3 min at 95°C, 40 cycles of 10 s at 95°C and 30 s at 62°C. For the Melt Curve, the amplification condition was: 1 min at 50°C and 90 cycles of 10 s at 50°C. The experiments were performed using the iCycler IQ Multicolor Real-time PCR Detection System (BioRad).
In general terms: Quantitative PCR measures a nucleic acid by following its amplification.

In the next data set the test system is Akt. Nature of the data set: Phospho-Akt Western blotting in PM. Particulars: PM 3×10^6/ml, 10 µg/ml, 1 h, Western blot, with respect to NC and SP, n = 5. Format: cell-based, mouse (Balb/c). As for the experimental part:
After incubation, cells were washed and lysated with Mammalian protein extraction reagent (M-PER) in the presence of protease and phosphatase inhibitors (all from Pierce, Rockford, IL). Protein concentration was determined with a BCA protein Assay Reagent kit (Pierce). The lysates (30 µg of each sample) were separated by sodium dodecyl-sulfate-10% PAGE, transferred to a nitrocellulose membrane (Pierce) for 1 h at 100 V in a blotting system (Bio-Rad) for Western Blot analysis, and the membranes were incubated over-night with rabbit polyclonal Abs to phospho-Akt (pAkt; dilution 1/1000), phospho-IkBα (pIkBα; dilution 1/1000) (all from Cell Signalling Technology, Beverly, MA) and rabbit polyclonal Ab to TLR-4 (dilution 1/200) (Santa Cruz Biotechnology Inc.) in blocking buffer. […] Immunoreactive bands were visualized and quantified by Chemidoc Instrument (Bio-Rad). In particular, a quantitative analysis of the region of interest drawn around the outer edge of the band, was performed based on the guidelines for the use of the Chemidoc Instrument (Bio-Rad). […] All the parallelograms that form a band create one unique three-dimensional solid structure on which the volume is calculated. […]
(In general: A western blot detects proteins with antibodies after separation by electrophoresis.)

For another data set, the system named is murine splenocytes. Nature of the data set: Cytokine production by unfractionated spleen cells (ELISA). Format: cell-based, mouse (Balb/c). Particulars: 10 µg/ml, 18 h, 10×10^6 cells/ml, ELISA of supernatants, data not shown. How it is done: Unfractionated spleen cells (10×10^6/ml), recovered from Balb/c mice, were cultured in the presence or absence of mAb HuA and mAb MoA CDR peptides, LPS or NC (all 10 µg/ml) for 18 h in RPMI-1640 plus 10% FCS (complete medium) at 37°C and 5% CO2. After incubation, the supernatants were collected and tested for TNF-α and IL-6 levels by specific ELISA assays (Biosource, Camarillo, CA, USA). In selected experiments, PM (5×10^6/ml) were cultured as above described. After incubation, the supernatants were collected and tested for TNF-α and IL-6 levels by specific ELISA assays (Biosource). PM (5×10^6/ml) were cultured in the presence or absence of mouse VHCDR3, LPS, NC or SP (all at 10 µg/ml) for 1 or 18 h in complete medium at 37°C and 5% CO2. PM (5×10^6/ml) were cultured as above described in the presence or absence of wortmannin (4 nM) or SB203580 (0,2 µM) (both from Sigma). After incubation, the supernatants were collected and tested for TNF-α level by specific ELISA assays (Biosource). In selected experiments, PM (5×10^6/ml) were cultured in the presence or absence of VHCDR3, LPS, NC, SP and nine VHCDR3 alanine-substituted derivatives (all at 10 µg/ml) for 18 h in complete medium at 37°C and 5% CO2. After incubation, the supernatants were collected and tested for TNF-α level by specific ELISA assays (Biosource). PMN (5×10^6/ml) were cultured in the presence or absence of mAb MoA CDR peptides, LPS or NC (all 10 µg/ml) for 18 h in complete medium at 37°C and 5% CO2. After incubation, the supernatants were collected and tested for TNF-α and IL-6 levels by specific ELISA assays (Biosource). Cytokine titers were calculated by reference to standard curves, constructed with known amounts of recombinant cytokines.
On the technique in general: In an ELISA, binding on a coated surface is turned into a signal by an enzyme label.

In a further data set the test system is PM. Nature of the data set: Uptake of biotin-labelled peptide by PM (flow cytometry). The conditions noted are these: 10 µg/ml, 37°C, FACScan, n = 7.

Take GQYGNLWFAY [VHCDR3]: in the data set with C. albicans (CA-6) (5×10^5 CA-6 cells i.v., 5, 7 and 12 days after infection, n = 7), the “CFU recovery from kidneys” value is “impressive decrease”. Further, the “survival of infected mice” value in the data set with C. albicans (CA-6) (7.5×10^5 CA-6 cells i.v., 30 days, vs untreated or VLCDR3-treated, Log rank P<0.05, n = 7) is “significant increase in survival”. Besides, the “TNF-α gene expression, 1 and 6 h” value in the data set on TNF-α gene (1 and 6 h) was “significant increase”. Further, the “TNF-α gene expression, 18 h” value in the data set with TNF-α gene (18 h) is on record as “rapid decline of gene expression”. In the data set on Akt, the “Akt phosphorylation (pAkt normalized against Akt)” value is reported as “increased activation of pAkt”. In the data set with murine splenocytes, the “IL-6 production by splenocytes” value was “increased production” and the “TNF-α production by splenocytes” value is reported as “increased production”. Further, the “kinetics of uptake by PM (MFI and percentage of positive cells), 6 and 18 h” value in the data set with PM (6 and 18 h incubation) is given as “persisted”. For the same sequence, in the data set on PM (1 h incubation), the “kinetics of uptake by PM (MFI and percentage of positive cells), 1 h” value is listed as “high level”. Further, the “kinetics of uptake by PM (MFI and percentage of positive cells), 72 h” value in the data set on PM (72 h incubation) is recorded as “negligible levels”.
